Test results as given in patent EP0090736A1, “Steroidal nitroso ureum with oncostatic activity, process for its preparation and its use as a medicine” (Etablissement Public dit: CENTRE NATIONAL DE LA RECHERCHE …, priority 1982, dated 1983).

Key:
[1] = tested on: leucémie L1210; test: Oncostatic activity on L1210 leukemia in mice (survival T/C); assay type: in vivo, souris (DBA2 - C57BL 100); conditions: for Dose optimale: L1210 leukemia, 10^5 cells i.p., treatment on days 1, 5 and 9, suspension in olive oil
Description: Le composé selon la présente invention a été étudié sur la leucémie L1210 en comparaison avec d'autres nitrosourées présentant également des propriétés oncostatiques. Il s'agit essentiellement de la BCNU, la CCNU, la Me CCNU, la RFCNU, la RPCNU et la Chlorozotocine. Ces composés, ainsi que le XPCNU, sont bien connus et décrits par exemple dans Biomedicine Express, vol. 23, n° 10 du 10 décembre 1975, pages 410-413.
Pour chaque composé, 10^5 cellules leucémiques ont été inoculées à 80 souris (DBA2 - C57BL 100), par voie intrapéritonéale.
Les traitements ont débuté un jour après la transplantation et ont été poursuivis les cinquième et neuvième jours. Les dérivés devant être testés sont administrés en suspension dans l'huile d'olive à 70 souris. Les doses injectées sont variables, chaque souris étant pesée individuellement. Les 10 souris restantes constituent le groupe témoin et reçoivent, en placébo, des volumes équivalents d'huile d'olive.
Le premier jour, les nitrosourées testées sont administrées, en doses variables, aux souris traitées.
Les cinquième et neuvième jours, les injections sont renouvelées sans signe macroscopique de toxicité.
Pour chaque composé, les activités oncostatiques ont été déterminées pour une dose spécifique et varient en fonction de la quantité administrée. Lorsque l'activité oncostatique est supérieure à 125 et si la différence des groupes témoins et traités à une signification statistique (test de WILCOXON), le composé est considéré comme étant actif à la dose utilisée.
La figure ci-annexée indique en fonction des doses de principe actif appliquées en milligramme par kilogramme le rapport T/C défini comme suit : T/C = moyenne de survie des groupes traités / moyenne de survie des groupes témoins x 100
La mention ∞ indique que plus de 50 % des animaux traités sont guéris.

[2] = Acute toxicity (DL50); assay type: in vivo
Procedure: On a, en outre, indiqué ci-après dans le tableau pour les composés connus et pour le composé selon la présente invention les MEDI, c'est-à-dire les doses médianes, les doses optimums les DL50 et par là l'index thérapeutique de ces composés.
On constate qu'à l'activité déterminée précédemment s'ajoute la dose médiane la plus grande jamais observée et une DL50 aiguë de 700 mg/kg qui est la plus avantageuse parmi toutes les autres nitrosourées, ce qui conduit à l'indice thérapeutique le plus élevé jamais obtenu jusqu'à présent pour ce type de composé oncostatique.

[3] = derived from DL50 and optimal dose on L1210

O=NN(CCCl)C(=O)N[C@H]1C(O)O[C@H](CO)[C@@H](O)[C@@H]1O (some centres unmarked) [CZT, Chlorozotocine]
Dose optimale [1]: 15 mg/kg
DL50 ([2]; acute DL50): 35 mg/kg
Index thérapeutique [2, 3]: 2,33

C[C@]12CC[C@H]3[C@@H](CC=C4C[C@@H](O)CC[C@@]43C)[C@@H]1CC[C@@H]2NC(=O)N(CCCl)N=O [Composé ex. 1, 17β-(N-2-chloroéthyl-N'-nitrosouréyl)-5-androsten-3β-ol]
Dose optimale [1]: 125 mg/kg
activité oncostatique (T/C) ([1]; T/C = mean survival treated / mean survival controls x 100, as a function of dose (figure), compared with other nitrosoureas): la meilleure activité oncostatique
LD50 ([2]; in vivo, acute DL50): 700 mg/kg
selectivity ratio ([2]; mouse, in vivo, derived from DL50 and optimal dose on L1210, read-out: Index thérapeutique): 5.6

CC1(C)O[C@@H]2[C@@H](COC(=O)c3ccc([N+](=O)[O-])cc3)OC(NC(=O)N(CCCl)N=O)[C@@H]2O1 (some centres unmarked) [RFCNU]
Dose optimale [1]: 20 mg/kg
DL50 ([2]; acute DL50): 90 mg/kg
Index thérapeutique [2, 3]: 4,5

CC(=O)O[C@@H]1[C@H](OC(C)=O)COC(NC(=O)N(CCCl)N=O)[C@@H]1OC(C)=O (some centres unmarked) [RPCNU]
Dose optimale [1]: 15 mg/kg
DL50 ([2]; acute DL50): 50 mg/kg
Index thérapeutique [2, 3]: 3,3

CC(=O)OC1COC(NC(=O)N(CCCl)N=O)C(OC(C)=O)C1OC(C)=O (centres unmarked) [XPCNU]
Dose optimale [1]: 15 mg/kg
